pEC50: −log10 of the molar value. Bridge positions count the residues as written; N and C are the ends. Square brackets hold non-standard residues; d marks the D form. Peptide text beside a SMILES is read from it. Hyp = O=C(O)[C@@H]1C[C@@H](O)CN1; Cit = NC(=O)NCCC[C@H](N)C(=O)O
How the values were obtained:
[1] = Physical stability of peptide analogues (Thioflavin T fibrillation); type: physicochemical; conditions: maximum ThT signal normalized between hAMY maximum and buffer background; 40° C., shaking, four days; pH 7 per table title
Method in brief: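 Maximum ThT emission at 480 nm, after LOESS smoothing, is given as percent of the span from buffer background to hAMY. Conditions: 50 mM buffer at pH 4 or 7, 4 μM dye, 40 °C, repeated shaking, readings every 10 min for four days.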

[2] = molecular target: T1, hAMY3 receptor (Homo sapiens, UniProt O60896+P30988); assay: cAMP assay for in vitro receptor activation, hAMY3-R; type: cell-based; conditions: cAMP assay, hAMY3 receptor; read-out: hAMY3R EC50
T1 sequence (P30988 25-474): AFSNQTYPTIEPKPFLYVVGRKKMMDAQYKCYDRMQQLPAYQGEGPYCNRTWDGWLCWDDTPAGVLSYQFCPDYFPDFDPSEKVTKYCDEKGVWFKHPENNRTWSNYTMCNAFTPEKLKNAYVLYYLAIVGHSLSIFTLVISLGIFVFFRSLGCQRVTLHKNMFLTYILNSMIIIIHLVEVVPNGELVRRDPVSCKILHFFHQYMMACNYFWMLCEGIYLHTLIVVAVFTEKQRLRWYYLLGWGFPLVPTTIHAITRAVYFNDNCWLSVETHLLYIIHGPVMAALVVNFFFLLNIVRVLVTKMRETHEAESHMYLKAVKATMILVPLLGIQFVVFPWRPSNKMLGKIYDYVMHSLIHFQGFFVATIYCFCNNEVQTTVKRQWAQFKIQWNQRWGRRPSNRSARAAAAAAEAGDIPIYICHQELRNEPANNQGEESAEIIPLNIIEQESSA
T1 sequence (O60896 24-148 partner): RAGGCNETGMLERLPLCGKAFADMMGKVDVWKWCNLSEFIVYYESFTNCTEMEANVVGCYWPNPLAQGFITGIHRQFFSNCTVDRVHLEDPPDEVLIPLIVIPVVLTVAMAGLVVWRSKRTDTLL
Method in brief: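 Read-out is TR-FRET cAMP signal, recorded one hour after reagent addition, following 30 min room-temperature stimulation of stable hAMY3 cells with graded compound doses in casein/IBMX (0.5 mM) buffer.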

[3] = molecular target: hAM1 receptor (Homo sapiens, UniProt O60895+Q16602); assay: cAMP assay for in vitro receptor activation, hAM1-R; type: cell-based; conditions: cAMP assay, hAM1 receptor; read-out: hAM1R EC50
hAM1 receptor, sequence (Q16602 23-461): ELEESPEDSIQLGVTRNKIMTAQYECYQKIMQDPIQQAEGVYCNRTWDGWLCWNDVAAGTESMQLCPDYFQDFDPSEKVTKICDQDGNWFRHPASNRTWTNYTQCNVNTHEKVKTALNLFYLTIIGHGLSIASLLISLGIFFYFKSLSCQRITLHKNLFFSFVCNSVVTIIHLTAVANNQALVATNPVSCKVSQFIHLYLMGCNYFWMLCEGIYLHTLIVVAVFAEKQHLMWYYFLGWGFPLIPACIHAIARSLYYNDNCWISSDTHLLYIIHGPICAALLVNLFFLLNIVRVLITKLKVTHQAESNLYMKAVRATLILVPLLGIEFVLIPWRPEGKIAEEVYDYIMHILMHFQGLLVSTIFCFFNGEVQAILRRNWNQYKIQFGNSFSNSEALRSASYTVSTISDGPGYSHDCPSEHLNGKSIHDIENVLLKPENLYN
hAM1 receptor, sequence (O60895 43-175 partner): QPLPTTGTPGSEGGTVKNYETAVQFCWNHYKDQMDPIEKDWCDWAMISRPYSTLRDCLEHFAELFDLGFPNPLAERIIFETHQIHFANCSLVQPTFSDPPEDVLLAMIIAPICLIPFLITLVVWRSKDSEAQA
Method in brief: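 Stable hAM1 cells (monoclonal) plated 8000/well; buffer DPBS, 0.05% casein, 0.5 mM IBMX; cAMP read-out.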

SMILES | Max ThT signal (%) [1] [%] | pEC50 [2] | pEC50 [3]
CC[C@H](C)[C@H](NC(=O)[C@H](CCC(N)=O)NC(=O)[C@H](Cc1c[nH]cn1)NC(=O)[C@H](C)NC(=O)[C@H](CC(C)C)NC(=O)[C@H](CCCNC(N)=O)NC(=O)[C@H](CCC(N)=O)NC(=O)[C@@H](NC(=O)[C@@H](NC(=O)[C@@H]1CSSC[C@H](NC(=O)[C@@H](N)CCCCN)C(=O)N[C@@H](CC(N)=O)C(=O)N[C@@H]([C@@H](C)O)C(=O)N[C@@H](C)C(=O)N[C@@H]([C@@H](C)O)C(=O)N1)[C@@H](C)O)C(C)C)C(=O)N[C@@H](Cc1ccc(O)cc1)C(=O)N[C@@H](CCC(N)=O)C(=O)N[C@@H](Cc1ccccc1)C(=O)N[C@H](C(=O)N[C@@H](CC(=O)O)C(=O)N[C@@H](CCCCN)C(=O)N[C@@H](C)C(=O)N[C@@H](CCCCN)C(=O)N[C@@H](CC(=O)O)C(=O)N[C@@H](CC(N)=O)C(=O)N[C@H](C(=O)N[C@@H](C)C(=O)N1CCC[C@H]1C(=O)N1CCC[C@H]1C(=O)N[C@H](C(=O)N[C@@H](CC(N)=O)C(=O)N[C@H](C(=O)NCC(=O)N[C@@H](CO)C(=O)N[C@@H](CC(N)=O)C(=O)NCC(=O)N1C[C@H](O)C[C@H]1C(N)=O)C(C)C)[C@@H](C)O)C(C)C)[C@@H](C)O [compound 258] (H-KCNTATCTVQ[Cit]LAHQIYQFTDKAKDNVAPPTNVGSNG[Hyp]-NH2; disulfide 2-7; N-terminus assumed) | 32.700 | 11.00 | < 5.30
CC[C@H](C)[C@H](NC(=O)[C@H](CCC(N)=O)NC(=O)[C@H](Cc1c[nH]cn1)NC(=O)[C@H](C)NC(=O)[C@H](CC(C)C)NC(=O)[C@H](CCCNC(N)=O)NC(=O)[C@H](CCC(N)=O)NC(=O)[C@@H](NC(=O)[C@@H](NC(=O)[C@@H]1CSSC[C@H](NC(=O)CN)C(=O)N[C@@H](CCCNC(=N)N)C(=O)N[C@@H]([C@@H](C)O)C(=O)NCC(=O)N[C@@H]([C@@H](C)O)C(=O)N1)[C@@H](C)O)C(C)C)C(=O)N[C@@H](Cc1ccc(O)cc1)C(=O)N[C@@H](CCC(N)=O)C(=O)N[C@@H](Cc1ccccc1)C(=O)N[C@H](C(=O)N[C@@H](CC(=O)O)C(=O)N[C@@H](CCCCN)C(=O)N[C@@H](CC(=O)O)C(=O)N[C@@H](CCCCN)C(=O)N[C@@H](CC(=O)O)C(=O)N[C@@H](CC(N)=O)C(=O)N[C@H](C(=O)N[C@@H](C)C(=O)N1CCC[C@H]1C(=O)N[C@@H](CCCNC(=N)N)C(=O)N[C@H](C(=O)N[C@@H](CC(N)=O)C(=O)N[C@H](C(=O)NCC(=O)N1CCC[C@H]1C(=O)N[C@@H](CCC(N)=O)C(=O)NCC(=O)N1C[C@H](O)C[C@H]1C(N)=O)C(C)C)[C@@H](C)O)C(C)C)[C@@H](C)O [compound 261] (H-GCRTGTCTVQ[Cit]LAHQIYQFTDKDKDNVAPRTNVGPQG[Hyp]-NH2; disulfide 2-7; N-terminus assumed) | 22.650 | 10.74 | < 5.30
CC[C@H](C)[C@H](NC(=O)[C@H](CCC(N)=O)NC(=O)[C@H](Cc1c[nH]cn1)NC(=O)[C@H](C)NC(=O)[C@H](CC(C)C)NC(=O)[C@H](CCCNC(N)=O)NC(=O)[C@H](CCC(N)=O)NC(=O)[C@@H](NC(=O)[C@@H](NC(=O)[C@@H]1CSSC[C@H](NC(=O)[C@@H](N)CCCCN)C(=O)N[C@@H](CC(N)=O)C(=O)N[C@@H]([C@@H](C)O)C(=O)N[C@@H](C)C(=O)N[C@@H]([C@@H](C)O)C(=O)N1)[C@@H](C)O)C(C)C)C(=O)N[C@@H](Cc1ccc(O)cc1)C(=O)N[C@@H](CCC(N)=O)C(=O)N[C@@H](Cc1ccccc1)C(=O)N[C@H](C(=O)N[C@@H](CC(=O)O)C(=O)N[C@@H](CCCCN)C(=O)N[C@@H](CC(=O)O)C(=O)N[C@@H](CCCCN)C(=O)N[C@@H](CC(=O)O)C(=O)N[C@@H](CC(N)=O)C(=O)N[C@H](C(=O)N[C@@H](C)C(=O)N[C@@H](C)C(=O)N1CCC[C@H]1C(=O)N[C@H](C(=O)N[C@@H](CC(N)=O)C(=O)N[C@H](C(=O)NCC(=O)N[C@@H](CO)C(=O)N[C@@H](CC(N)=O)C(=O)NCC(=O)N1C[C@H](O)C[C@H]1C(N)=O)C(C)C)[C@@H](C)O)C(C)C)[C@@H](C)O [compound 262] (H-KCNTATCTVQ[Cit]LAHQIYQFTDKDKDNVAAPTNVGSNG[Hyp]-NH2; disulfide 2-7; N-terminus assumed) | 9.550 | 10.85 | < 5.30
CC[C@H](C)[C@H](NC(=O)[C@H](CCC(N)=O)NC(=O)[C@H](Cc1c[nH]cn1)NC(=O)[C@H](C)NC(=O)[C@H](CC(C)C)NC(=O)[C@H](CCCNC(N)=O)NC(=O)[C@H](CCC(N)=O)NC(=O)[C@@H](NC(=O)[C@@H](NC(=O)[C@@H]1CSSC[C@H](NC(=O)[C@@H](N)CCCCN)C(=O)N[C@@H](CC(N)=O)C(=O)N[C@@H]([C@@H](C)O)C(=O)N[C@@H](C)C(=O)N[C@@H]([C@@H](C)O)C(=O)N1)[C@@H](C)O)C(C)C)C(=O)N[C@@H](Cc1ccc(O)cc1)C(=O)N[C@@H](CCC(N)=O)C(=O)N[C@@H](Cc1ccccc1)C(=O)N[C@@H](CC(=O)O)C(=O)N[C@@H](CCCCN)C(=O)N[C@@H](CC(=O)O)C(=O)N[C@@H](CCCCN)C(=O)N[C@@H](CC(=O)O)C(=O)N[C@@H](CC(N)=O)C(=O)N[C@H](C(=O)N[C@@H](C)C(=O)N1CCC[C@H]1C(=O)N1CCC[C@H]1C(=O)N[C@H](C(=O)N[C@@H](CC(N)=O)C(=O)N[C@H](C(=O)NCC(=O)N[C@@H](CO)C(=O)N[C@@H](CC(N)=O)C(=O)NCC(=O)N1C[C@H](O)C[C@H]1C(N)=O)C(C)C)[C@@H](C)O)C(C)C [compound 265] (H-KCNTATCTVQ[Cit]LAHQIYQFDKDKDNVAPPTNVGSNG[Hyp]-NH2; disulfide 2-7; N-terminus assumed) | 26.550 | 10.52 | < 5.30
CC[C@H](C)[C@H](NC(=O)[C@H](CCC(N)=O)NC(=O)[C@H](CCC(=O)O)NC(=O)[C@H](C)NC(=O)[C@H](CC(C)C)NC(=O)[C@H](CCCNC(N)=O)NC(=O)[C@H](CCC(N)=O)NC(=O)[C@@H](NC(=O)[C@@H](NC(=O)[C@@H]1CSSC[C@H](NC(=O)[C@@H](N)CCCCN)C(=O)N[C@@H](CC(N)=O)C(=O)N[C@@H]([C@@H](C)O)C(=O)N[C@@H](C)C(=O)N[C@@H]([C@@H](C)O)C(=O)N1)[C@@H](C)O)C(C)C)C(=O)N[C@@H](Cc1ccc(O)cc1)C(=O)N[C@@H](CCC(N)=O)C(=O)N[C@@H](Cc1ccccc1)C(=O)N[C@H](C(=O)N[C@@H](CC(=O)O)C(=O)N[C@@H](CCCCN)C(=O)N[C@@H](CC(=O)O)C(=O)N[C@@H](CCCCN)C(=O)N[C@@H](CC(=O)O)C(=O)N[C@@H](CC(N)=O)C(=O)N[C@H](C(=O)N[C@@H](CO)C(=O)N1CCC[C@H]1C(=O)N1CCC[C@H]1C(=O)N[C@H](C(=O)N[C@@H](CC(N)=O)C(=O)N[C@H](C(=O)NCC(=O)N[C@@H](CO)C(=O)N[C@@H](CC(N)=O)C(=O)NCC(=O)N1C[C@H](O)C[C@H]1C(N)=O)C(C)C)[C@@H](C)O)C(C)C)[C@@H](C)O [compound 266] (H-KCNTATCTVQ[Cit]LAEQIYQFTDKDKDNVSPPTNVGSNG[Hyp]-NH2; disulfide 2-7; N-terminus assumed) | 20.900 | 10.28 | < 5.30
